According to patent US11197479B2, “Use of silthiofam for the treatment of soybean rust” (priority 2018, dated 2021):
Several values for one entry are separate records, joined by “and”; a condition that tells them apart may be missing. Equal values may be shown once.

System: Phakopsora pachyrhizi
Assay: Glasshouse pot trial: efficacy on soybean rust on soybean (Glycine max), visual estimation of degree of infection on leaves
Type: in vivo
Description: In the tables presented below, the following terms have the following meaning:
Glasshouse pot trials were conducted to evaluate the effect and efficacy of silthiofam on soybean rust disease on soybean (Glycine max).
The trial was divided in 11 treatments. In 4 of the treatments, silthiofam was applied in different amounts.
Silthiofam compositions used in this trial were prepared from the suspension concentrate containing 125 g/L of silthiofam, diluted with water to predetermined concentration and sprayed on the plants in the predetermined amounts.
In two of the treatments, silthiofam was applied in combination with additional ingredients.
First combination was of silthiofam and chitosan, wherein silthiofam was applied in an amount of 250 g/ha on the plant first and chitosan was applied subsequently in an amount of 200 g/ha.
Second combination was a combination of silthiofam and tagatose, wherein silthiofam was applied in an amount of 250 g/ha simultaneously with tagatose in an amount of 200 g/ha.
Further 6 treatments were current market available treatments of soybean rust applied in the label prescribed dose, wherein the compositions used were prepared from commercially available products prepared according to the respective label instructions and sprayed on the plants.
One treatment of the trial consisted of fungi inoculated plants which received no treatment.
Soybean plants were treated two times with silthiofam and other treatments. First treatment was applied when soybean plants reached stage BBCH16 and the second treatment was applied when soybean plants reached stage BBCH61. Growth stages were defined according to Compendium of Growth Stage Identification Keys for Mono- and Dicotyledonous Plants, Extended BBCH scale, 2nd Edition 1997, ISBN 3-9520749-3-4.
After silthiofam and other treatments were applied first time, plants were inoculated with Phakopsora pachyrhizi spores and evaluation of leaves condition and disease spread was done every 7 days.
Method used for evaluation of disease spread was visual estimation of degree of infection on leaves.
The experimental design of the pot trial was randomized design with 4 pot replications per treatment applied, wherein six soybean plants were planted per pot.
Treatments were the following:
Treatment 1: Plant inoculated with P. pachyrhizi, no treatment applied
Treatment 2: Treatment with flutriafol and azoxystrobin mixture, applied in concentration of 31.25 g flutriafol/ha and 37.5 g azoxystrobin/ha
Treatment 3: Silthiofam treatment applied in 250 g silthiofam/ha
Treatment 4: Silthiofam treatment applied in 500 g silthiofam/ha
Treatment 5: Silthiofam treatment applied in 250 g silthiofam/ha and 200 g/ha of tagatose
Treatment 6: Silthiofam treatment applied in 250 g silthiofam/ha and 200 g/ha of chitosan
Treatment 7: Mancozeb applied in 1.68 kg mancozeb/ha
Treatment 8: Chlorothalonil applied in 626.4 g chlorothalonil/ha
Treatment 9: Azoxystrobin applied in 37.5 g azoxystrobin/ha
Treatment 10: Boscalid applied in 294 g boscalid/ha
Treatment 11: Prothioconazole and tebuconazole mixture applied as 42 g prothioconazole/ha and 84 g tebuconazole/ha

Compound: N#Cc1c(Cl)c(Cl)c(Cl)c(C#N)c1Cl [Chlorothalonil]
- % efficacy (chlorothalonil 626.4 g/ha, 7/7 d after first/last application, 19 d after planting, LEALOW): 35.8% and 65.9% and 54.9% and 50.0%
- % efficacy (chlorothalonil 626.4 g/ha, 7/7 d after first/last application, 19 d after planting, LEAUPP): 100.0%
- % efficacy (chlorothalonil 626.4 g/ha, 14/14 d after first/last application, 26 d after planting, LEALOW): 75.0% and 69.0% and 68.1% and 59.2%
- % efficacy (chlorothalonil 626.4 g/ha, 14/14 d after first/last application, 26 d after planting, LEAMID): 85.0% and 80.2% and 79.0% and 67.1%
- % efficacy (chlorothalonil 626.4 g/ha, 14/14 d after first/last application, 26 d after planting, LEAUPP): 88.3% and 81.5% and 78.9% and 80.0%
- % efficacy (chlorothalonil 626.4 g/ha, 21/21 d after first/last application, 33 d after planting, LEALOW): 55.0% and 40.0% and 44.0% and 45.0%
- % efficacy (chlorothalonil 626.4 g/ha, 21/21 d after first/last application, 33 d after planting, LEAMID): 72.0% and 70.0% and 65.0% and 62.0%
- % efficacy (chlorothalonil 626.4 g/ha, 21/21 d after first/last application, 33 d after planting, LEAUPP): 82.3% and 80.6% and 72.0% and 64.3%
- % efficacy (chlorothalonil 626.4 g/ha, 28/7 d after first/last application, 40 d after planting, LEALOW): 22.0% and 34.0% and 32.0% and 26.0%
- % efficacy (chlorothalonil 626.4 g/ha, 28/7 d after first/last application, 40 d after planting, LEAMID): 56.0% and 52.0% and 55.0% and 54.0%
- % efficacy (chlorothalonil 626.4 g/ha, 28/7 d after first/last application, 40 d after planting, LEAUPP): 74.4% and 70.6% and 70.9% and 76.7%
- % efficacy (chlorothalonil 626.4 g/ha, 35/14 d after first/last application, 47 d after planting, LEAMID): 52.0% and 44.0% and 48.0% and 42.0%
- % efficacy (chlorothalonil 626.4 g/ha, 35/14 d after first/last application, 47 d after planting, LEAUPP): 63.8% and 69.0% and 68.0%
- % efficacy (chlorothalonil 626.4 g/ha, 42/21 d after first/last application, 54 d after planting, LEAUPP): 52.0% and 45.0% and 42.0% and 48.0%

Compound: CO/C=C(/C(=O)OC)c1ccccc1Oc1cc(Oc2ccccc2C#N)ncn1 [Azoxystrobin]
- % efficacy (azoxystrobin 37.5 g/ha, 7/7 d after first/last application, 19 d after planting, LEALOW): 64.3% and 72.8% and 67.8% and 77.8%
- % efficacy (azoxystrobin 37.5 g/ha, 7/7 d after first/last application, 19 d after planting, LEAMID): 73.4% and 88.9% and 81.9% and 100.0%
- % efficacy (azoxystrobin 37.5 g/ha, 7/7 d after first/last application, 19 d after planting, LEAUPP): 100.0%
- % efficacy (azoxystrobin 37.5 g/ha, 14/14 d after first/last application, 26 d after planting, LEALOW): 85.0% and 79.0% and 84.1% and 80.6%
- % efficacy (azoxystrobin 37.5 g/ha, 14/14 d after first/last application, 26 d after planting, LEAMID): 92.0% and 94.5% and 90.0% and 89.4%
- % efficacy (azoxystrobin 37.5 g/ha, 14/14 d after first/last application, 26 d after planting, LEAUPP): 98.6% and 90.8% and 98.7%
- % efficacy (azoxystrobin 37.5 g/ha, 21/21 d after first/last application, 33 d after planting, LEALOW): 72.0% and 65.0% and 59.0% and 60.0%
- % efficacy (azoxystrobin 37.5 g/ha, 21/21 d after first/last application, 33 d after planting, LEAMID): 82.0% and 79.0% and 90.0% and 78.0%
- % efficacy (azoxystrobin 37.5 g/ha, 21/21 d after first/last application, 33 d after planting, LEAUPP): 100.0%
- % efficacy (azoxystrobin 37.5 g/ha, 28/7 d after first/last application, 40 d after planting, LEALOW): 54.0% and 67.0% and 65.0% and 62.0%
- % efficacy (azoxystrobin 37.5 g/ha, 28/7 d after first/last application, 40 d after planting, LEAMID): 82.0% and 85.0% and 88.0%
- % efficacy (azoxystrobin 37.5 g/ha, 28/7 d after first/last application, 40 d after planting, LEAUPP): 100.0%
- % efficacy (azoxystrobin 37.5 g/ha, 35/14 d after first/last application, 47 d after planting, LEAMID): 85.0% and 88.0% and 82.0%
- % efficacy (azoxystrobin 37.5 g/ha, 35/14 d after first/last application, 47 d after planting, LEAUPP): 100.0% and 98.9%
- % efficacy (azoxystrobin 37.5 g/ha, 42/21 d after first/last application, 54 d after planting, LEAMID): 52.0% and 62.0% and 56.0% and 58.0%
- % efficacy (azoxystrobin 37.5 g/ha, 42/21 d after first/last application, 54 d after planting, LEAUPP): 82.0% and 85.0% and 86.0%

Compound: O=C(Nc1ccccc1-c1ccc(Cl)cc1)c1cccnc1Cl [Boscalid]
- % efficacy (boscalid 294 g/ha, 7/7 d after first/last application, 19 d after planting, LEALOW): 85.8% and 86.4% and 93.6% and 100.0%
- % efficacy (boscalid 294 g/ha, 7/7 d after first/last application, 19 d after planting, LEAMID): 100.0%
- % efficacy (boscalid 294 g/ha, 7/7 d after first/last application, 19 d after planting, LEAUPP): 100.0%
- % efficacy (boscalid 294 g/ha, 14/14 d after first/last application, 26 d after planting, LEALOW): 76.0% and 80.0% and 78.0%
- % efficacy (boscalid 294 g/ha, 14/14 d after first/last application, 26 d after planting, LEAMID): 90.0% and 86.8% and 88.0% and 85.1%
- % efficacy (boscalid 294 g/ha, 14/14 d after first/last application, 26 d after planting, LEAUPP): 98.6% and 92.6% and 98.7%
- % efficacy (boscalid 294 g/ha, 21/21 d after first/last application, 33 d after planting, LEALOW): 55.0% and 42.0% and 38.0% and 35.0%
- % efficacy (boscalid 294 g/ha, 21/21 d after first/last application, 33 d after planting, LEAMID): 56.0% and 49.0% and 55.0% and 52.0%
- % efficacy (boscalid 294 g/ha, 21/21 d after first/last application, 33 d after planting, LEAUPP): 91.9% and 88.9% and 89.4% and 92.9%
- % efficacy (boscalid 294 g/ha, 28/7 d after first/last application, 40 d after planting, LEALOW): 49.0% and 52.0% and 51.0% and 44.0%
- % efficacy (boscalid 294 g/ha, 28/7 d after first/last application, 40 d after planting, LEAMID): 44.0% and 48.0% and 56.0% and 52.0%
- % efficacy (boscalid 294 g/ha, 28/7 d after first/last application, 40 d after planting, LEAUPP): 85.9% and 100.0% and 93.1% and 85.7%
- % efficacy (boscalid 294 g/ha, 35/14 d after first/last application, 47 d after planting, LEAMID): 35.0% and 42.0% and 48.0% and 43.0%
- % efficacy (boscalid 294 g/ha, 35/14 d after first/last application, 47 d after planting, LEAUPP): 83.6% and 82.0% and 77.3% and 82.2%
- % efficacy (boscalid 294 g/ha, 42/21 d after first/last application, 54 d after planting, LEAUPP): 75.0% and 67.0% and 64.0% and 72.0%

Compound: Mancozeb
- % efficacy (mancozeb 1.68 kg/ha, 7/7 d after first/last application, 19 d after planting, LEALOW): 50.0% and 65.9% and 64.6% and 61.2%
- % efficacy (mancozeb 1.68 kg/ha, 7/7 d after first/last application, 19 d after planting, LEAMID): 46.7% and 72.3% and 54.6% and 50.0%
- % efficacy (mancozeb 1.68 kg/ha, 7/7 d after first/last application, 19 d after planting, LEAUPP): 100.0%
- % efficacy (mancozeb 1.68 kg/ha, 14/14 d after first/last application, 26 d after planting, LEALOW): 67.0% and 75.0% and 56.4% and 64.3%
- % efficacy (mancozeb 1.68 kg/ha, 14/14 d after first/last application, 26 d after planting, LEAMID): 82.0% and 78.0% and 73.5%
- % efficacy (mancozeb 1.68 kg/ha, 14/14 d after first/last application, 26 d after planting, LEAUPP): 83.8% and 72.3% and 85.9% and 76.0%
- % efficacy (mancozeb 1.68 kg/ha, 21/21 d after first/last application, 33 d after planting, LEALOW): 42.0% and 38.0% and 52.0% and 48.0%
- % efficacy (mancozeb 1.68 kg/ha, 21/21 d after first/last application, 33 d after planting, LEAMID): 66.0% and 62.0% and 59.0% and 60.0%
- % efficacy (mancozeb 1.68 kg/ha, 21/21 d after first/last application, 33 d after planting, LEAUPP): 71.0% and 72.3% and 66.7% and 60.0%
- % efficacy (mancozeb 1.68 kg/ha, 28/7 d after first/last application, 40 d after planting, LEALOW): 28.0% and 35.0% and 32.0% and 25.0%
- % efficacy (mancozeb 1.68 kg/ha, 28/7 d after first/last application, 40 d after planting, LEAMID): 62.0% and 56.0% and 54.0% and 49.0%
- % efficacy (mancozeb 1.68 kg/ha, 28/7 d after first/last application, 40 d after planting, LEAUPP): 82.1% and 74.2% and 73.7% and 68.9%
- % efficacy (mancozeb 1.68 kg/ha, 35/14 d after first/last application, 47 d after planting, LEAMID): 48.0% and 36.0% and 32.0% and 43.0%
- % efficacy (mancozeb 1.68 kg/ha, 35/14 d after first/last application, 47 d after planting, LEAUPP): 72.6% and 67.0% and 59.0% and 54.8%
- % efficacy (mancozeb 1.68 kg/ha, 42/21 d after first/last application, 54 d after planting, LEAUPP): 54.0% and 43.0% and 52.0% and 38.0%
